Consider ten compounds from article PMC2680423 (Cell calcium, 2009).

One may read the IC50 as the point on the concentration scale where inhibition reaches its midpoint. A high value points to weaker potency.

Test [1] concerns the target T1, Drosophila TRPL channel (Drosophila melanogaster, UniProt P48994).
T1 sequence (P48994 1-1124): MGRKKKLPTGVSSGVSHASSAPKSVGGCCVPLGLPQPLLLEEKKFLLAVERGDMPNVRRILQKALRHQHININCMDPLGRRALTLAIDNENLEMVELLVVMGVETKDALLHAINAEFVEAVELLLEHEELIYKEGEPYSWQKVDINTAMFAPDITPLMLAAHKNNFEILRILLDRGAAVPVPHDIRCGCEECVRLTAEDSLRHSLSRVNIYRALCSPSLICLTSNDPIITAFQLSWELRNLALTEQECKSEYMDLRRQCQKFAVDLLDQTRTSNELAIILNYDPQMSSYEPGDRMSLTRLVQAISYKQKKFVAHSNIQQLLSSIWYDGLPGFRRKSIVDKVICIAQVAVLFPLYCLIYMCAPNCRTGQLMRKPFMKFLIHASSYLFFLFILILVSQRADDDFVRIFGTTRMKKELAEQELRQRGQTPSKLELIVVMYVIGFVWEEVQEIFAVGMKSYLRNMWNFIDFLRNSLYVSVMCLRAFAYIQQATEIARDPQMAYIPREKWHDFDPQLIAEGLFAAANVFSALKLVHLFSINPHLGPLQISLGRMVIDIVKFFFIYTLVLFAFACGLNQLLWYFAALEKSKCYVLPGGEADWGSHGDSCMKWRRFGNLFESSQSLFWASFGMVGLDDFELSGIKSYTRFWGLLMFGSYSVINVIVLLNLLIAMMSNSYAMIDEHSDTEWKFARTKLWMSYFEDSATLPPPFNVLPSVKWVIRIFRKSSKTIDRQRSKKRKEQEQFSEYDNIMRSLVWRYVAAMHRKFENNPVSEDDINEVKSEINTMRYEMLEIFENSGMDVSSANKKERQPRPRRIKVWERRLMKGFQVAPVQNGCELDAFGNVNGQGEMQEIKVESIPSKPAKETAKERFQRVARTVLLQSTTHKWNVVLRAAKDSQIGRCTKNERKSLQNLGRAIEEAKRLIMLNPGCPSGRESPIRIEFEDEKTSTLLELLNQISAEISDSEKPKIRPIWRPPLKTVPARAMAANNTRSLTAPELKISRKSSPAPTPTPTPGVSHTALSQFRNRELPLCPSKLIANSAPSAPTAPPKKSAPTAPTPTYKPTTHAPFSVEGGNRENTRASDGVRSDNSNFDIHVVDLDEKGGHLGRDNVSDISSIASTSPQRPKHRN
Put plainly: Whole cell patch clamp of TRPL channels expressed in S2 cells. It counts as cell-based. The conditions noted are these: for TRPL Activation/Inhibition: Table 1, TRPL expressed in S2 cells; for Reversibility of effect on TRPL channel: washout, S2 cells. For orientation: In patch-clamp work, channel activity is measured electrically.

For test [2], the target named is T1, Drosophila TRPL channel. The conditions noted are these: Table 1; no own experiment shown; cited from earlier work.
Test [3] relates to S2 cells (TRPL not expressed). It counts as cell-based, Drosophila. The conditions noted are these: control S2 cells.
Another test addresses T2, native TRPL channel (Drosophila melanogaster, UniProt P48994).
T2 sequence (P48994 1-1124): T1 sequence (P48994 1-1124)
Nature of the test: Light induced current.

For test [4], the target named is TRPM7-GFP expressed in hippocampal neurons (Mus musculus, UniProt Q923J1). Put plainly: Synaptic vesicle release. In kind it is cell-based. The conditions noted are these: 500μM.
Sequence of TRPM7-GFP expressed in hippocampal neurons (Q923J1 whole entry): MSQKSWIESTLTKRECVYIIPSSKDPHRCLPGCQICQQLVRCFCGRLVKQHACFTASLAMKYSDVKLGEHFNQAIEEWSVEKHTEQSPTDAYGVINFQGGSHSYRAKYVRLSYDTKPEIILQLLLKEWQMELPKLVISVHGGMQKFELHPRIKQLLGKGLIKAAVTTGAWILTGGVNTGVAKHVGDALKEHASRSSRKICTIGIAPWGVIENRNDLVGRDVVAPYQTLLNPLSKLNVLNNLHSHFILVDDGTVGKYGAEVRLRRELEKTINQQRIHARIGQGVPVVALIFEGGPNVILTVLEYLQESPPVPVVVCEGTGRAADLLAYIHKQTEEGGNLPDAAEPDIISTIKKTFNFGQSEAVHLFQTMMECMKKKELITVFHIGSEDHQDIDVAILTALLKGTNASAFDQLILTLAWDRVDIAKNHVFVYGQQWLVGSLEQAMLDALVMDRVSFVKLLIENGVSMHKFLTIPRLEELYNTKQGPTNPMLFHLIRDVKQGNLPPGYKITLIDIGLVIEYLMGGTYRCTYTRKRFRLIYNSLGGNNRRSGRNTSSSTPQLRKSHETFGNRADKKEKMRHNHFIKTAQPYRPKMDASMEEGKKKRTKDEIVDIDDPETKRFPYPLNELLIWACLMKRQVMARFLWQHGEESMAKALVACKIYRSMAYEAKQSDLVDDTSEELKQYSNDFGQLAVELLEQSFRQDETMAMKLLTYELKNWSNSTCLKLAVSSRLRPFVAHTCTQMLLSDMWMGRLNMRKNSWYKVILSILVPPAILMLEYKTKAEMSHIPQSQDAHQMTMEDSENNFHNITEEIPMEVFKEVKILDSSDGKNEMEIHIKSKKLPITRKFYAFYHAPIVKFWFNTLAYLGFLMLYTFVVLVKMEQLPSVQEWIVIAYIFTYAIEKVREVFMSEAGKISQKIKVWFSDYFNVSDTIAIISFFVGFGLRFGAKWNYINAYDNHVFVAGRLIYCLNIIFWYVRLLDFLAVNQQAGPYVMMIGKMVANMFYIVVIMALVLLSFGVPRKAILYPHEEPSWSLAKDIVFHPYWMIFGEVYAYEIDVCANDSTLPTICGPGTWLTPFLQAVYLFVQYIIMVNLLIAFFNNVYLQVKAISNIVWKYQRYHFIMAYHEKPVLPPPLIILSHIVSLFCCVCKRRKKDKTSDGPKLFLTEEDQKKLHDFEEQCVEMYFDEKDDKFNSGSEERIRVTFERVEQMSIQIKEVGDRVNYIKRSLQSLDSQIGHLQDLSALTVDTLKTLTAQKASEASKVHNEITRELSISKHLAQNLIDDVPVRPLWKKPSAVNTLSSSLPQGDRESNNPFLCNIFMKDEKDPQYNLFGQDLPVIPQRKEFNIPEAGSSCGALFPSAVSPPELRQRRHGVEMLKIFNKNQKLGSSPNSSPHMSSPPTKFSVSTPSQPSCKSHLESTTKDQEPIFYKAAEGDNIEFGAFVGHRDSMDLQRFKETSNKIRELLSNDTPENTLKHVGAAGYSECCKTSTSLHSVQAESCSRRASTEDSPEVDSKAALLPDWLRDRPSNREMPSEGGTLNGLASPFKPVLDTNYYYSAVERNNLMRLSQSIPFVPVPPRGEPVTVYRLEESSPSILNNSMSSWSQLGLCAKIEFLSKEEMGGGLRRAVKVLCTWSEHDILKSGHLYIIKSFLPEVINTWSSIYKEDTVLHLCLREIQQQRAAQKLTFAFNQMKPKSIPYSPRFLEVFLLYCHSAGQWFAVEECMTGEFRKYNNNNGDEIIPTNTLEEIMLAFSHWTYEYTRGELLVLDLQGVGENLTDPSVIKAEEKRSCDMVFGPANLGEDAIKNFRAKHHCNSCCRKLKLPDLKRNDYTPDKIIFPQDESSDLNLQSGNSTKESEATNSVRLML
The next test concerns the target mammalian TRPM7 (Mus musculus, UniProt Q923J1). Put plainly: Whole cell patch clamp of TRPM7 expressed in HEK293 cells. It counts as cell-based.
The next test concerns the target T3, native TRP channel (Drosophila melanogaster, UniProt P19334).
T3 sequence (P19334 1-1275): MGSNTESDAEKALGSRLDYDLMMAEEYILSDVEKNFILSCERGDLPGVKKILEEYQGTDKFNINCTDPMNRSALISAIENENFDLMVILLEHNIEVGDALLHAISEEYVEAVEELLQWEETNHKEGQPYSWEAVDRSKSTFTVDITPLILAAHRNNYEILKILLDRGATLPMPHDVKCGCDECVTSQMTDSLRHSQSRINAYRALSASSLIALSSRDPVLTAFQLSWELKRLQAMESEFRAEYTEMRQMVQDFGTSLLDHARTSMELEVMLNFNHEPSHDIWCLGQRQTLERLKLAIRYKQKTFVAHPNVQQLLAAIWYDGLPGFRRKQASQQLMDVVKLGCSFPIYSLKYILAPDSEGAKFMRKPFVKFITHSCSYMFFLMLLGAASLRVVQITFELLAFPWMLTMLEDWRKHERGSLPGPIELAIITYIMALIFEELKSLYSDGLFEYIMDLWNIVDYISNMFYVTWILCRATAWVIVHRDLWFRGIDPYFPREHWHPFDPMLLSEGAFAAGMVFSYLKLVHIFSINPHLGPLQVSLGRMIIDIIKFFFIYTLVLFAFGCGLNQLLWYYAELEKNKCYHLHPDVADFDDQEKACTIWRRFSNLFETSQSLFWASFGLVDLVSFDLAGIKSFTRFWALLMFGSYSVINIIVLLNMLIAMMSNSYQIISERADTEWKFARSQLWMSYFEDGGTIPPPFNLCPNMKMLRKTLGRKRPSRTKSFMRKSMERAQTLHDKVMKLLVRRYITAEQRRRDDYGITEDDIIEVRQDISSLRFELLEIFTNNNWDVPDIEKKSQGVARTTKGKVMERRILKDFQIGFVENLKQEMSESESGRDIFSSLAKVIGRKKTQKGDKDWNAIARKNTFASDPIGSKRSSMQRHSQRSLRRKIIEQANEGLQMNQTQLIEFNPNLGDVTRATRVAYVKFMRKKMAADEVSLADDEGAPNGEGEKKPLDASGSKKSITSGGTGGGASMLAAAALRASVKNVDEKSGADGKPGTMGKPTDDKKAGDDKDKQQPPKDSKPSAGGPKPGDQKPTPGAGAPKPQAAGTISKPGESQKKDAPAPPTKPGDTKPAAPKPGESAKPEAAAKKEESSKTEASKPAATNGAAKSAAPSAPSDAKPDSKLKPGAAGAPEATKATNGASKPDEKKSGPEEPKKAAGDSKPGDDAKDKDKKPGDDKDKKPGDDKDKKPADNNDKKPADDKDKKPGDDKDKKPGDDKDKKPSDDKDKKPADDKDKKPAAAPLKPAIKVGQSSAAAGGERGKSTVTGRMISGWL
Put plainly: Light induced current. The conditions noted are these: WT photoreceptors, 6 min in the dark after application.

Test [5] deals with control hippocampal neurons. Nature of the test: Synaptic vesicle release. In kind it is cell-based. The conditions noted are these: 500μM.
For a further test, the system named is TRPM8. The conditions noted are these: cited from earlier work.
The test system of test [6] is mock transfected HEK293 cells. Put plainly: Control: mock transfected HEK293 cells, whole cell patch clamp. In kind it is cell-based, Human. The conditions noted are these: TRPM7 not expressed.

Where two headings read alike, the source gives them in different places.

Sequence of mammalian TRPM7 (Q923J1 whole entry): as the sequence (Q923J1 whole entry) above

For `C=C(C)C1CC=C(C)C(O)C1` (mixture of isomers) [Carveol], at Drosophila TRPL channel [1], it took 4.22 ± 0.4 mM to reach half-maximal inhibition (IC50) and the “TRPL Activation/Inhibition” value is reported as “Inhibition”. The “Effect on TRPL-mediated current” value on Drosophila TRPL channel [1] (5mM (caffeic acid: up to 5mM)) is listed as “large decrease in the TRPL-dependent current”.

As to `NCCOB(c1ccccc1)c1ccccc1` [2-APB, 2-Aminoethoxydiphenyl borate], the “TRPL Activation/Inhibition” value on Drosophila TRPL channel [2] is on record as “Inhibition”.

On to `CC1(C)C2CCC1(C)C(O)C2` (centres unmarked) [Borneol], for which the “Effect on current when TRPL was not expressed” value in test [3] is on record as “no effect”. For the same compound, the “Effect on TRPL-mediated current” value on Drosophila TRPL channel [1] (5mM (caffeic acid: up to 5mM)) is “activated”. Moreover, on Drosophila TRPL channel [1], the “TRPL Activation/Inhibition” value was “Activation” and the “Reversibility of effect on TRPL channel” value is recorded as “completely reversible”.

Consider `O=C(O)/C=C/c1ccc(O)c(O)c1` [Caffeic acid], for which the “Effect on TRPL-mediated current” value at Drosophila TRPL channel [1] (5mM (caffeic acid: up to 5mM)) is “did not block”. Besides, the “TRPL Activation/Inhibition” value on Drosophila TRPL channel [1] is recorded as “No effect”.

On to `CC12CCC(CC1=O)C2(C)C` (centres unmarked) [Camphor], for which the “Effect on TRPL-mediated current” value on Drosophila TRPL channel [1] (10mM) is on record as “activated”. In addition, the “TRPL Activation/Inhibition” value at Drosophila TRPL channel [1] was “Activation”.

For the compound `Cc1ccc(C(C)C)cc1O` [Carvacrol], the “Effect on amplitude of the LIC (native TRPL)” value on native TRPL channel (500μM, trp^P343 mutant photoreceptor) is on record as “dramatic reduction”. Moreover, the “Requirement of light stimulation for inhibition of native TRPL” value on native TRPL channel (carvacrol applied in the dark, trp^P343) was “does not require light stimulation”. Besides, the “Effect on current when TRPL was not expressed” value in [3] is “no effect”. In addition, the “ΔF median of boutons after application” value in test [4] (before application 73) was 75 arbitrary units (a.u); in [5] (before application 88), 87 arbitrary units. Also, the “Number of FM detectable boutons after application” value in test [4] (before application 578) worked out at 318; in test [5] (before application 764), 845. Moreover, the “Effect on TRPM7 mediated current” value on mammalian TRPM7 (500μM) is recorded as “dramatic decrease”. The “Reversibility of block of TRPM7” value on mammalian TRPM7 (HEK293 cells) is “reversibly blocked”. Besides, the “Effect on LIC of WT flies (TRP channel)” value on native TRP channel is recorded as “inhibits”. In addition, the “Effect on TRPL-mediated current” value on Drosophila TRPL channel [1] (500μM) was “Large suppression of the current”. Moreover, the “TRPL Activation/Inhibition” value on Drosophila TRPL channel [1] is recorded as “Inhibition”. Also, the “Reversibility of effect on TRPL channel” value on Drosophila TRPL channel [1] is “reversibly blocked”. Moreover, the “Effect on presynaptic activity in control neurons” value in [5] is listed as “did not affect”. Also, the “Effect on TRPM8” value in the test with TRPM8 is given as “only a minimal effect”. Also, the “Effect on current in mock transfected HEK293 cells” value in test [6] is “no effect”.

Turning to `O=C/C=C/c1ccccc1` [Cinnamaldehyde], on Drosophila TRPL channel [1] (2mM), the “Effect on TRPL-mediated current” value is “decrease in the TRPL mediated current”. On Drosophila TRPL channel [1], the “TRPL Activation/Inhibition” value is recorded as “Inhibition” and the “Reversibility of effect on TRPL channel” value is “reversible”.

As for `C=CCc1ccc(O)c(OC)c1` [Eugenol], the “Effect on TRPL-mediated current” value on Drosophila TRPL channel [1] (3mM) is on record as “large decrease in the TRPL-dependent current”. At Drosophila TRPL channel [1], the “TRPL Activation/Inhibition” value is reported as “Inhibition”.

In the case of `CC1CCC(C(C)C)C(O)C1` (centres unmarked) [Menthol], on Drosophila TRPL channel [1], the IC50 was 1.81 ± 0.13 mM and the “TRPL Activation/Inhibition” value is on record as “Inhibition”. Besides, the “Effect on TRPL-mediated current” value at Drosophila TRPL channel [1] (5mM (caffeic acid: up to 5mM)) is given as “large decrease in the TRPL-dependent current”.

As to `Cc1ccc(C(C)C)c(O)c1` [Thymol], the “Effect on TRPL-mediated current” value on Drosophila TRPL channel [1] (1mM) was “large decrease in the TRPL-dependent current”. Moreover, at Drosophila TRPL channel [1], the “TRPL Activation/Inhibition” value was “Inhibition”.
